# Values quoted from earlier work in patent US7026316B2, “Dipeptidyl peptidase inhibitors for the treatment or prevention of diabetes” (Merck & Co., Inc., priority 2001, dated 2006).
# Tests used:
# DP-IV = DP-IV (Homo sapiens, UniProt P27487)
# mouse = conditions: cyclophosphamide-induced neutropenia
# rats = conditions: survival doubled from day 7 to day 14
# Sequence of DP-IV (P27487 whole entry): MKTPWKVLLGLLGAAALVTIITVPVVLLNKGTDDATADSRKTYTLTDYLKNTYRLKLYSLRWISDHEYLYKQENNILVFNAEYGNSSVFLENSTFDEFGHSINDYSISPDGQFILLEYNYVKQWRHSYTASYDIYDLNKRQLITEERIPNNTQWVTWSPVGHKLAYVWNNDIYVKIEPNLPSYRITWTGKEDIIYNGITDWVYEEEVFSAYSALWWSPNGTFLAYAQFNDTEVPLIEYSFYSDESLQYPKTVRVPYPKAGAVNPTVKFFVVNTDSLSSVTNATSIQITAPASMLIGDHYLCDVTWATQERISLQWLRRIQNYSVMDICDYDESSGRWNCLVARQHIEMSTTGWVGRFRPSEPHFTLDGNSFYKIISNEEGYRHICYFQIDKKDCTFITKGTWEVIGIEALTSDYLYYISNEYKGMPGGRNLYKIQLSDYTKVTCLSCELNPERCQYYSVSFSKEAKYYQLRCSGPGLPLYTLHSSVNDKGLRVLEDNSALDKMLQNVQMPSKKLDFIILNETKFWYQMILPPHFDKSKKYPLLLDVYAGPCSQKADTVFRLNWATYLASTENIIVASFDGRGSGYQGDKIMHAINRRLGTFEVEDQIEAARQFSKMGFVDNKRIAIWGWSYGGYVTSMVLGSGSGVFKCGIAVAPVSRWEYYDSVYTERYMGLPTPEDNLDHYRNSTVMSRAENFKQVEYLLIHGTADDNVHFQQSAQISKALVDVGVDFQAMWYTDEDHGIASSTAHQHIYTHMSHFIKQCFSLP
structure (smiles),measurement,setting,value
CC[C@H](C)[C@H](N)C(=O)N1CCC[C@H]1C(=O)N[C@H](C(=O)O)[C@@H](C)CC [diprotin A],degradation of GRH in plasma to GRH[3-44],DP-IV,prevented
CC(C)[C@H](N)C(=O)N1CCC[C@H]1B(O)O [Val-Boro-Pro],hematopoiesis,mouse,stimulated hematopoiesis
"CC(C)N1CCC(c2ccccc2)(c2ccccc2)CC1 [Prodipine, Pro-Pro-diphenyl-phosphonate]",cardiac allograft survival,rats,14 day
